Reference: patent US7642245B2, “Antibacterial compounds having a (pyrrole carboxamide)-(benzamide)-(imidazole carboxamide) motif” (Oscient Pharmaceuticals Corporation, priority 2002, dated 2010)

How the values were obtained:
C. albicans ATCC 38247 = experiment: MIC, antifungal assay; assay type: cell-based, Candida albicans; conditions: F = C. albicans ATCC 38247
Source text: (§1) In vitro biological activity data were collected for a variety of microorganisms, including Staphylococcus aureus (ATCC 27660, a methicillin resistant strain (MRSA); ATCC 13709, a methicillin sensitive strain (MSSA)), Enterococcus faecalis (ATCC 29212), Bacillus cereus (ATCC 11778), Streptococcus pneumoniae (ATCC 49619), Candida albicans (ATCC 38247), Escherichia coli (ATCC 25922), and Moraxella (now Branhamella) catarrhalis (ATCC 25238).
(§2) The minimal inhibition concentration (MIC) of these compounds was determined using the National Committee for Clinical Laboratory Standards (NCCLS) broth microdilution assay in microtiter plates, as set forth in: (1) the guidelines of the National Committee for Clinical Laboratory Standards (NCCLS) Document M7-A4 (NCCLS, 1997); (2) the guidelines of the National Committee for Clinical Laboratory Standards (NCCLS) Document M11-A4 (NCCLS, 1997); and (3) the guidelines and reference method of the National Committee for Clinical Laboratory Standards (NCCLS) Document M27-T (NCCLS, 1995). For antifungal assays, the method recommended in Murray, P R., 1995 Manual of Clinical Microbiology (ASM Press, Washington, DC.), was employed.

[1] = test system: M. catarrhalis (ATCC 25238); experiment: MIC, NCCLS broth microdilution; assay type: cell-based, Moraxella (now Branhamella) catarrhalis; conditions: H = M. catarrhalis (ATCC 25238)
Source text: as §1, §2

S. pneumoniae ATCC 49619 = experiment: MIC, NCCLS broth microdilution; assay type: cell-based, Streptococcus pneumoniae; conditions: E = S. pneumoniae ATCC 49619
Source text: as §1, §2

E. coli ATCC 25922 = experiment: MIC, NCCLS broth microdilution; assay type: cell-based, Escherichia coli; conditions: G = E. coli ATCC 25922
Source text: as §1, §2

E. faecalis ATCC 29212 = experiment: MIC, NCCLS broth microdilution; assay type: cell-based, Enterococcus faecalis; conditions: C = E. faecalis ATCC 29212
Source text: as §1, §2

B. cereus ATCC 11778 = experiment: MIC, NCCLS broth microdilution; assay type: cell-based, Bacillus cereus; conditions: D = B. cereus ATCC 11778
Source text: as §1, §2

S. aureus ATCC 27660 = experiment: MIC, NCCLS broth microdilution; assay type: cell-based, Staphylococcus aureus; conditions: B = S. aureus ATCC 27660 (MRSA)
Source text: as §1, §2

S. aureus ATCC 13709 = experiment: MIC, NCCLS broth microdilution; assay type: cell-based, Staphylococcus aureus; conditions: A = S. aureus ATCC 13709 (MSSA)
Source text: as §1, §2

Row | SMILES | Minimum Inhibitory Concentration (MIC) (C. albicans ATCC 38247) | Minimum Inhibitory Concentration (MIC) [1] | Minimum Inhibitory Concentration (MIC) (S. pneumoniae ATCC 49619) | Minimum Inhibitory Concentration (MIC) (E. coli ATCC 25922) | Minimum Inhibitory Concentration (MIC) (E. faecalis ATCC 29212) | Minimum Inhibitory Concentration (MIC) (B. cereus ATCC 11778) | Minimum Inhibitory Concentration (MIC) (S. aureus ATCC 27660) | Minimum Inhibitory Concentration (MIC) (S. aureus ATCC 13709)
1 | C[C@@H]1CN(CCNC(=O)c2nc(NC(=O)c3ccc(NC(=O)c4cc(NC(=O)c5cc6ccccc6cn5)cn4C)cc3)cn2C)C[C@H](C)O1 [Compound A-51] | >32 µg/mL | +++ (MIC ≦ 4 μg/mL) | +++ (MIC ≦ 4 μg/mL) | >32 µg/mL | +++ (MIC ≦ 4 μg/mL) | +++ (MIC ≦ 4 μg/mL) | +++ (MIC ≦ 4 μg/mL) | +++ (MIC ≦ 4 μg/mL)
2 | Cn1cc(NC(=O)c2nccc3ccccc23)cc1C(=O)Nc1ccc(C(=O)Nc2cn(C)c(C(=O)NCCN3CCC(O)CC3)n2)cc1 [Compound A-5] | >32 µg/mL | >32 µg/mL | +++ (MIC ≦ 4 μg/mL) | >32 µg/mL | +++ (MIC ≦ 4 μg/mL) | +++ (MIC ≦ 4 μg/mL) | +++ (MIC ≦ 4 μg/mL) | +++ (MIC ≦ 4 μg/mL)
3 | Cn1cc(NC(=O)c2cc3ccccc3cn2)cc1C(=O)Nc1ccc(C(=O)Nc2cn(C)c(C(=O)NCCN3CCC(O)C3)n2)cc1 (racemic) [Compound A-71] | >32 µg/mL | +++ (MIC ≦ 4 μg/mL) | +++ (MIC ≦ 4 μg/mL) | +++ (MIC ≦ 4 μg/mL) | +++ (MIC ≦ 4 μg/mL) | +++ (MIC ≦ 4 μg/mL) | +++ (MIC ≦ 4 μg/mL) | +++ (MIC ≦ 4 μg/mL)
4 | Cn1cc(NC(=O)c2cc3ccccc3cn2)cc1C(=O)Nc1ccc(C(=O)Nc2cn(C)c(C(=O)NCCN3CCCC3)n2)cc1 [Compound A-16] | >32 µg/mL | +++ (MIC ≦ 4 μg/mL) | +++ (MIC ≦ 4 μg/mL) | +++ (MIC ≦ 4 μg/mL) | +++ (MIC ≦ 4 μg/mL) | +++ (MIC ≦ 4 μg/mL) | +++ (MIC ≦ 4 μg/mL) | +++ (MIC ≦ 4 μg/mL)
5 | Cn1cc(NC(=O)c2cc3ccccc3cn2)cc1C(=O)Nc1ccc(C(=O)Nc2cn(C)c(C(=O)NCCN3CCC(OC(=O)CCN)CC3)n2)cc1 [Compound A-60] | ++ (4 < MIC < 12 μg/mL) | ++ (4 < MIC < 12 μg/mL) | +++ (MIC ≦ 4 μg/mL) | >32 µg/mL | +++ (MIC ≦ 4 μg/mL) | +++ (MIC ≦ 4 μg/mL) | +++ (MIC ≦ 4 μg/mL) | +++ (MIC ≦ 4 μg/mL)
6 | Cn1cc(NC(=O)c2cc3ccccc3cn2)cc1C(=O)Nc1ccc(C(=O)Nc2cn(C)c(C(=O)NCCN3CCN(CCO)CC3)n2)cc1 [Compound A-27] | >32 µg/mL | +++ (MIC ≦ 4 μg/mL) | +++ (MIC ≦ 4 μg/mL) | >32 µg/mL | +++ (MIC ≦ 4 μg/mL) | +++ (MIC ≦ 4 μg/mL) | +++ (MIC ≦ 4 μg/mL) | +++ (MIC ≦ 4 μg/mL)
7 | Cn1cc(NC(=O)c2cc3ccccc3cn2)cc1C(=O)Nc1ccc(C(=O)Nc2cn(C)c(C(=O)NCCN3CCC(F)(F)CC3)n2)cc1 [Compound A-11] | >32 µg/mL | +++ (MIC ≦ 4 μg/mL) | +++ (MIC ≦ 4 μg/mL) | >32 µg/mL | +++ (MIC ≦ 4 μg/mL) | +++ (MIC ≦ 4 μg/mL) | +++ (MIC ≦ 4 μg/mL) | +++ (MIC ≦ 4 μg/mL)
8 | Cn1cc(NC(=O)c2cc3ccccc3cn2)cc1C(=O)Nc1ccc(C(=O)Nc2cn(C)c(C(=O)NCCNCCO)n2)cc1 [Compound A-45] | >32 µg/mL | + (12 ≦ MIC ≦ 32 μg/mL) | +++ (MIC ≦ 4 μg/mL) | >32 µg/mL | +++ (MIC ≦ 4 μg/mL) | +++ (MIC ≦ 4 μg/mL) | +++ (MIC ≦ 4 μg/mL) | +++ (MIC ≦ 4 μg/mL)
9 | Cn1cc(NC(=O)c2cc3ccccc3cn2)cc1C(=O)Nc1ccc(C(=O)Nc2cn(C)c(C(=O)NCCN3CCN(C(=O)CNC(=O)OC(C)(C)C)CC3)n2)cc1 [Compound A-64] | >32 µg/mL | ++ (4 < MIC < 12 μg/mL) | +++ (MIC ≦ 4 μg/mL) | >32 µg/mL | +++ (MIC ≦ 4 μg/mL) | +++ (MIC ≦ 4 μg/mL) | +++ (MIC ≦ 4 μg/mL) | +++ (MIC ≦ 4 μg/mL)
10 | Cn1cc(NC(=O)c2cc3ccccc3cn2)cc1C(=O)Nc1ccc(C(=O)Nc2cn(C)c(C(=O)NCCN(CCO)CCO)n2)cc1 [Compound A-54] | >32 µg/mL | >32 µg/mL | +++ (MIC ≦ 4 μg/mL) | >32 µg/mL | +++ (MIC ≦ 4 μg/mL) | +++ (MIC ≦ 4 μg/mL) | +++ (MIC ≦ 4 μg/mL) | +++ (MIC ≦ 4 μg/mL)

The next lines start with the values.

Row | Minimum Inhibitory Concentration (MIC) (C. albicans ATCC 38247) | Minimum Inhibitory Concentration (MIC) [1] | Minimum Inhibitory Concentration (MIC) (S. pneumoniae ATCC 49619) | Minimum Inhibitory Concentration (MIC) (E. coli ATCC 25922) | Minimum Inhibitory Concentration (MIC) (E. faecalis ATCC 29212) | Minimum Inhibitory Concentration (MIC) (B. cereus ATCC 11778) | Minimum Inhibitory Concentration (MIC) (S. aureus ATCC 27660) | Minimum Inhibitory Concentration (MIC) (S. aureus ATCC 13709) | SMILES
11 | >32 µg/mL | +++ (MIC ≦ 4 μg/mL) | +++ (MIC ≦ 4 μg/mL) | +++ (MIC ≦ 4 μg/mL) | +++ (MIC ≦ 4 μg/mL) | +++ (MIC ≦ 4 μg/mL) | +++ (MIC ≦ 4 μg/mL) | +++ (MIC ≦ 4 μg/mL) | CC(O)CN1CCN(CCNC(=O)c2nc(NC(=O)c3ccc(NC(=O)c4cc(NC(=O)c5cc6ccccc6cn5)cn4C)cc3)cn2C)CC1 (stereo not drawn) [Compound A-63]
12 | + (12 ≦ MIC ≦ 32 μg/mL) | +++ (MIC ≦ 4 μg/mL) | +++ (MIC ≦ 4 μg/mL) | ++ (4 < MIC < 12 μg/mL) | +++ (MIC ≦ 4 μg/mL) | +++ (MIC ≦ 4 μg/mL) | +++ (MIC ≦ 4 μg/mL) | +++ (MIC ≦ 4 μg/mL) | COCCNCCNC(=O)c1nc(NC(=O)c2ccc(NC(=O)c3cc(NC(=O)c4cc5ccccc5cn4)cn3C)cc2)cn1C [Compound A-28]
13 | >32 µg/mL | +++ (MIC ≦ 4 μg/mL) | +++ (MIC ≦ 4 μg/mL) | >32 µg/mL | +++ (MIC ≦ 4 μg/mL) | +++ (MIC ≦ 4 μg/mL) | +++ (MIC ≦ 4 μg/mL) | +++ (MIC ≦ 4 μg/mL) | CCN1CCN(CCNC(=O)c2nc(NC(=O)c3ccc(NC(=O)c4cc(NC(=O)c5cc6ccccc6cn5)cn4C)cc3)cn2C)CC1 [Compound A-13]
14 | >32 µg/mL | +++ (MIC ≦ 4 μg/mL) | +++ (MIC ≦ 4 μg/mL) | >32 µg/mL | +++ (MIC ≦ 4 μg/mL) | +++ (MIC ≦ 4 μg/mL) | +++ (MIC ≦ 4 μg/mL) | +++ (MIC ≦ 4 μg/mL) | CC(C)N1CCN(CCNC(=O)c2nc(NC(=O)c3ccc(NC(=O)c4cc(NC(=O)c5cc6ccccc6cn5)cn4C)cc3)cn2C)CC1 [Compound A-15]
15 | >32 µg/mL | +++ (MIC ≦ 4 μg/mL) | +++ (MIC ≦ 4 μg/mL) | >32 µg/mL | +++ (MIC ≦ 4 μg/mL) | +++ (MIC ≦ 4 μg/mL) | +++ (MIC ≦ 4 μg/mL) | +++ (MIC ≦ 4 μg/mL) | CN1CCN(CCNC(=O)c2nc(NC(=O)c3ccc(NC(=O)c4cc(NC(=O)c5cc6ccccc6cn5)cn4C)cc3)cn2C)CC1 [Compound A-12]
